Source: US20120064056A1, “DICHLORACETATE IN COMBINATION WITH CLINICALLY HIGH LEVELS OF CARDIOPROTECTIVE OR HEMODYNAMIC DRUGS” (THE GOVERNORS OF THE UNIVERSITY OF ALBERTA TEC Edmonton, priority 2002, published 2012)

What was measured:
isolated rat hearts [1] = experiment: Isolated working rat heart, aerobic perfusion: cardiac function and efficiency; set-up: Cardiac Work (CO · PSP): unit not given beside the values
Procedure: (§1) Rat hearts were cannulated for isolated working heart perfusions as described in “An imbalance between glycolysis and glucose oxidation is a possible explanation for the detrimental effects of high levels of fatty acids during aerobic reperfusion of ischemic hearts.”, (J Pharmacol Exp Ther. 264:135 (1993); herein incorporated by reference. In brief, male Sprague-Dawley rats (0.3-0.35 kg) were anesthetized with pentobarbital sodium (60 mg/kg IP) and hearts were quickly excised, the aorta was cannulated and a retrograde perfusion at 37° C. was initiated at a hydrostatic pressure of 60 mm Hg. Hearts were trimmed of excess tissue, and the pulmonary artery and the opening to the left atrium were then cannulated. After 15 min of Langendorff perfusion, hearts were switched to the working mode by clamping the aortic inflow line from the Langendorff reservoir and opening the left atrial inflow line. The perfusate was delivered from an oxygenator into the left atrium at a constant preload pressure of 11 mm Hg. Perfusate was ejected from spontaneously beating hearts into a compliance chamber (containing 1 ml of air) and into the aortic outflow line. The afterload was set at a hydrostatic pressure of 80 mm Hg. All working hearts were perfused with Krebs'-Henseleit solution containing calcium 2.5 mmol/L, glucose 5.5 mmol/L, 3% bovine serum albumin (Fraction V, Boehringer Mannheim), and with 1.2 mmol/L palmitate. Palmitate was bound to the albumin as described previously (Saddik M., et al. J Biol. Chem. 267:3825-3831 (1992)). The perfusate was recirculated, and pH was adjusted to 7.4 by bubbling with a mixture containing 95% O2 and 5% CO2. For the aerobic model hearts, all tested compounds were introduced into the heart 5 minutes into the working mode following Langendorff Perfusion.
Spontaneously beating hearts were used in all perfusions. Heart rate and aortic pressure were measured with a Biopac Systems Inc. blood pressure transducer connected to the aortic outflow line. Cardiac output and aortic flow were measured with Transonic T206 ultrasonic flow probes in the preload and afterload lines, respectively. Coronary flow was calculated as the difference between cardiac output and aortic flow. The O2 contents of the perfusate entering and leaving the heart were measured using YSI™ micro oxygen electrodes placed in the preload and pulmonary arterial lines, respectively. Myocardial O2 consumption (MVO2) was calculated according to the Fick principle, using coronary flow rates and the arteriovenous difference in perfusate O2 concentration. Cardiac work was calculated as the product of systolic pressure and cardiac output. Cardiac efficiency was defined as a ratio of cardiac work to MVO2.

isolated rat hearts [2] = experiment: Isolated working rat heart, aerobic perfusion: glycolysis and glucose oxidation; set-up: glycolytic rates (glycolysis) / glucose oxidation rates: unit not given here; settings: normal hearts, aerobic, DCA 2 mM, digoxin 3 nM, diltiazem 0.8 μM, dobutamine 1 μM, metoprolol 1 μM
Procedure: as §1
Glycolysis and glucose oxidation were measured simultaneously by perfusing hearts with [5-^3H/U-^14C] glucose (Liu H., et al. Am J Physiol. 270:H72-H80 (1996); Taegtmeyer Het al. Am J Cardiol. 80:3A-10A (1997)). The total myocardial ^3H2O production and ^14CO2 production were determined at 10 minute intervals for the entirety of the aerobic period, 60 minutes for normal hearts and 30 minutes for the global ischemia and low flow demand ischemia models. In the global ischemia model, the total myocardial ^3H2O and ^14CO2 production were determined at 20 minute intervals for the 60 minute reperfusion period. In the low flow demand ischemia model, the total myocardial ^3H2O and ^14CO2 production were determined at 10 minute intervals for the 30 minute reperfusion period. Glucose oxidation rates were determined by quantitative measurement of ^14CO2 production as described previously (Barbour R. L., et al. Biochemistr. 1923:6503-6062 (1984)).

[3] = system: isolated rat hearts subjected to global ischemia; experiment: Isolated working rat heart, global no flow ischemia and reperfusion: cardiac function and efficiency
Procedure: Hearts were trimmed of excess tissue, and the pulmonary artery and the opening to the left atrium were then cannulated. After 15 min of Langendorff perfusion, hearts were switched to the working mode by clamping the aortic inflow line from the Langendorff reservoir and opening the left atrial inflow line. The perfusate was delivered from an oxygenator into the left atrium at a constant preload pressure of 11 mm Hg. […] The afterload was set at a hydrostatic pressure of 80 mm Hg. […] Palmitate was bound to the albumin as described previously ([…]., et al. J Biol. Chem. 267:3825-3831 (1992)). […] For the aerobic model hearts, all tested compounds were introduced into the heart 5 minutes into the working mode following Langendorff Perfusion. Spontaneously beating hearts were used in all perfusions. Heart rate and aortic pressure were measured with a Biopac Systems Inc. blood pressure transducer connected to the aortic outflow line. Cardiac output and aortic flow were measured with Transonic […] ultrasonic flow probes in the preload and afterload lines, respectively. Coronary flow was calculated as the difference between cardiac output and aortic flow. […] Cardiac work was calculated as the product of systolic pressure and cardiac output. Cardiac efficiency was defined as a ratio of cardiac work to MVO2. […] All tested compounds were introduced into the perfusate five minutes prior to reperfusion.

[4] = system: isolated rat hearts subjected to global ischemia; experiment: Isolated working rat heart, global ischemia and reperfusion: glycolysis and glucose oxidation; settings: digoxin 3 nM, metoprolol 1 μM
Procedure: Hearts were trimmed of excess tissue, and the pulmonary artery and the opening to the left atrium were then cannulated. After 15 min of Langendorff perfusion, hearts were switched to the working mode by clamping the aortic inflow line from the Langendorff reservoir and opening the left atrial inflow line. The perfusate was delivered from an oxygenator into the left atrium at a constant preload pressure of 11 mm Hg. […] The afterload was set at a hydrostatic pressure of 80 mm Hg. […] Palmitate was bound to the albumin as described previously ([…]., et al. J Biol. Chem. 267:3825-3831 (1992)). […] For the aerobic model hearts, all tested compounds were introduced into the heart 5 minutes into the working mode following Langendorff Perfusion. […] All tested compounds were introduced into the perfusate five minutes prior to reperfusion. […] Am J Physiol. 270:[…]. Am J Cardiol. 80:3A-10A (1997)). […] In the global ischemia model, the total myocardial ^3H2O and ^14CO2 production were determined at 20 minute intervals for the 60 minute reperfusion period. […] L., et al. Biochemistr. 1923:6503-6062 (1984)).

[5] = aerobically perfused, DCA 2 mM, diltiazem 0.8 μM, digoxin 3 nM, metoprolol 1 μM, dobutamine 1 μM
[6] = post-ischemic reperfusion, DCA 2 mM, digoxin 3 nM, metoprolol 1 μM

Q: `COCCc1ccc(OCC(O)CNC(C)C)cc1` (centres unmarked) [Metoprolol, metoprolol] was tested. Which “Aortic Outflow” value (isolated rat hearts [1]; [5]) did it give?
A: The value was 35 ± 5 mL/min.

Q: And the “Cardiac Efficiency (CW · O2^−1)” value (isolated rat hearts [1]; [5])?
A: The value was 1.85 ± 0.15.

Q: And the “Cardiac Output” value (isolated rat hearts [1]; [5])?
A: Its value is 55 ± 8 mL/min.

Q: And the “Cardiac Work (CO · PSP)” value (isolated rat hearts [1]; [5])?
A: Its value is 71 ± 10.

Q: And the “Coronary Flow” value (isolated rat hearts [1]; [5])?
A: Its value is 20 ± 3 mL/min.

Q: What about the “HR × PSP” value (isolated rat hearts [1]; [5]) of the same molecule?
A: The value was 32 ± 4 beats · min^−1 · mmHg · 10^−2.

Q: And the “Heart Rate” value (isolated rat hearts [1]; [5])?
A: The value was 250 ± 26 beats · min^−1.

Q: What about the “O2 Consumption” value (isolated rat hearts [1]; [5]) of the same molecule?
A: Its value is 40 ± 9 μmolO2 · g dry wt^−1 · min^−1.

Q: What about the “Peak Systolic Pressure” value (isolated rat hearts [1]; [5]) of the same molecule?
A: Its value is 130 ± 2 mmHg.

Q: What about the “effect on functional parameters shown in Table 2 incl. O2 consumption and cardiac efficiency, in words” value (isolated rat hearts [1]; normal hearts, aerobic, compared to control) of the same molecule?
A: The value was “no significant effect”.

Q: And the “effect on functional parameters shown in Table 1 (heart rate, peak systolic pressure, HR×PSP), in words” value (isolated rat hearts [1]; normal hearts, aerobic, compared to control (DCA and dobutamine: compared to dobutamine alone))?
A: The value was “no significant effect”.

Q: And the glucose oxidation rates (isolated rat hearts [2]; FIG. 1, 3, 5, 7, control 361±43)?
A: Its glucose oxidation rates is 651±222.

Q: What about the “glycolytic rates (glycolysis)” value (isolated rat hearts [2]; FIG. 2, 4, 6, 8, control 3.430±0.604) of the same molecule?
A: Its value is 4.530±0.876.

Q: What about the “Aortic Outflow” value [3, 6] of the same molecule?
A: Its value is 11 ± 5 mL/min.

Q: And the “Cardiac Output” value [3, 6]?
A: Its value is 24 ± 9 mL/min.

Q: And the “Coronary Flow” value [3, 6]?
A: Its value is 13 ± 4 mL/min.

Q: What about the “HR × PSP” value [3, 6] of the same molecule?
A: Its value is 13 ± 6 beats · min^−1 · mmHg · 10^−2.

Q: And the “Heart Rate” value [3, 6]?
A: The value was 185 ± 40 beats · min^−1.

Q: And the “Peak Systolic Pressure” value [3, 6]?
A: Its value is 73 ± 17 mmHg.

Q: What about the “functional parameters (cardiac function, cardiac efficiency) during the reperfusion period compared to control (Table 1, Table 2), in words” value ([3]; reperfusion period) of the same molecule?
A: Its value is “significantly improved”.

Q: What about the “recovery of cardiac function of previously ischemic hearts compared to control, in words” value ([3]; reperfusion period, FIG. 11, FIG. 17) of the same molecule?
A: The value was “does not change cardiac function”.

Q: What about the “recovery of cardiac work of previously ischemic hearts compared to control, in words” value ([3]; reperfusion period, FIG. 12, FIG. 18) of the same molecule?
A: The value was “significantly improve the recovery”.

Q: And the “recovery of oxygen consumption of previously ischemic hearts, in words” value ([3]; reperfusion period, FIG. 13, FIG. 19)?
A: Its value is “There does not appear to be significant differences”.

Q: What about the “recovery of cardiac efficiency of previously ischemic hearts compared to control, in words” value ([3]; reperfusion period, FIG. 14, FIG. 20) of the same molecule?
A: Its value is “does not”.

Q: What about the “glycolytic rates as compared to control, in words” value ([4]; FIG. 10, FIG. 16, DCA 2 mM) of the same molecule?
A: The value was “neither DCA, metoprolol or metoprolol with DCA altered glycolytic rates”.

Q: What about the “glucose oxidation rates, in words” value ([4]; reperfusion period, FIG. 9, FIG. 15, DCA 2 mM) of the same molecule?
A: Its value is “no effect”.
